Data: the CheMixHub ionic liquid set
± gives the uncertainty stated by the source.

Test: xn = mol fraction of the nth substance listed

CC(=O)[O-].Cn1cc[n+](CCO)c1 + O
100 kPa
Conditions | viscosity [mPa·s]
293.15 K, x1 = 0.9003 | 93.9 ± 4.3
298.15 K, x1 = 0.8317 | 41.2 ± 1.7
298.15 K, x1 = 0.8712 | 56.8 ± 2.4
303.15 K, x1 = 0.8317 | 32 ± 1.4
303.15 K, x1 = 0.8712 | 43.6 ± 1.8
308.15 K, x1 = 0.8317 | 25.4 ± 1.1
308.15 K, x1 = 0.8818 | 36.7 ± 1.5
313.15 K, x1 = 0.8632 | 25.8 ± 1.1
313.15 K, x1 = 0.8712 | 26.6 ± 1.1
313.15 K, x1 = 0.8818 | 29 ± 1.2
323.15 K, x1 = 0.8818 | 19.3 ± 0.81
328.15 K, x1 = 0.8712 | 14.72 ± 0.62
333.15 K, x1 = 0.8818 | 13.46 ± 0.57
333.15 K, x1 = 0.9003 | 14.78 ± 0.62

CCCCCCCCCCCCCC[P+](CCCC)(CCCC)CCCC.CCCCCCCCCCCCc1ccc(S(=O)(=O)[O-])cc1 + O
100 kPa
Conditions | viscosity [mPa·s]
323.15 K, x1 = 0.3453 | 116 ± 8
353.15 K, x1 = 0.892 | 148 ± 10

CCCCCCCCCCCCCC[P+](CCCCCC)(CCCCCC)CCCCCC.[Cl-] + O
100 kPa, x2 = 0.818
Conditions | viscosity [mPa·s]
318.15 K | 50.65 ± 0.37
323.15 K | 41.05 ± 0.32

CCCCCCCCCn1cc[n+](C)c1.O=S(=O)([N-]S(=O)(=O)C(F)(F)F)C(F)(F)F + O
100 kPa, x2 = 0.1736
Conditions | viscosity [mPa·s]
298.15 K | 72.66 ± 0.69
308.15 K | 46.59 ± 0.41
318.15 K | 31.72 ± 0.28
323.15 K | 26.65 ± 0.23
358.15 K | 10.15 ± 0.09
363.15 K | 9.09 ± 0.08

CCCCCCC[n+]1ccn(C)c1.O=S(=O)([N-]S(=O)(=O)C(F)(F)F)C(F)(F)F + O
100 kPa, x2 = 0.1971
Conditions | viscosity [mPa·s]
308.15 K | 34.86 ± 0.31
318.15 K | 24.33 ± 0.21
323.15 K | 20.69 ± 0.18
358.15 K | 8.4 ± 0.07

CCCCCC[n+]1ccn(C)c1.O=S(=O)([N-]S(=O)(=O)C(F)(F)C(F)(F)F)C(F)(F)C(F)(F)F + O
101 kPa, x2 = 0.187
Conditions | electrical conductivity [S/m] | viscosity [mPa·s]
293.15 K | – | 122 ± 17
295.15 K | 0.15 ± 0.02 | –

CCCCC[n+]1ccn(C)c1.C[C@H](N)C(=O)[O-] + O
viscosity [mPa·s], 100.3 kPa
Conditions | 288.15 K | 293.15 K | 298.15 K | 303.15 K | 308.15 K | 313.15 K | 318.15 K | 323.15 K | 328.15 K
x1 = 0.0003008 | 1.156 ± 0.016 | 1.015 ± 0.016 | 0.9 ± 0.015 | 0.81 ± 0.015 | 0.725 ± 0.015 | 0.661 ± 0.015 | 0.604 ± 0.015 | 0.554 ± 0.015 | 0.511 ± 0.015
x1 = 0.0003999 | 1.162 ± 0.016 | 1.022 ± 0.016 | 0.907 ± 0.015 | 0.813 ± 0.015 | 0.732 ± 0.015 | 0.664 ± 0.015 | 0.606 ± 0.015 | 0.556 ± 0.015 | 0.513 ± 0.015
x1 = 0.0005025 | 1.167 ± 0.016 | 1.027 ± 0.016 | 0.911 ± 0.015 | 0.817 ± 0.015 | 0.735 ± 0.015 | 0.666 ± 0.015 | 0.608 ± 0.015 | 0.559 ± 0.015 | 0.515 ± 0.015
x1 = 0.001012 | 1.203 ± 0.016 | 1.057 ± 0.016 | 0.937 ± 0.015 | 0.838 ± 0.015 | 0.755 ± 0.015 | 0.684 ± 0.015 | 0.626 ± 0.015 | 0.573 ± 0.015 | 0.529 ± 0.015
x1 = 0.00302 | 1.361 ± 0.016 | 1.197 ± 0.016 | 1.057 ± 0.016 | 0.939 ± 0.015 | 0.841 ± 0.015 | 0.759 ± 0.015 | 0.688 ± 0.015 | 0.629 ± 0.015 | –
x1 = 0.005081 | 1.512 ± 0.017 | 1.325 ± 0.016 | 1.163 ± 0.016 | 1.027 ± 0.016 | 0.916 ± 0.015 | 0.827 ± 0.015 | 0.749 ± 0.015 | 0.685 ± 0.015 | –
x1 = 0.006922 | 1.657 ± 0.017 | 1.445 ± 0.017 | 1.272 ± 0.016 | 1.118 ± 0.016 | 0.997 ± 0.016 | 0.893 ± 0.015 | 0.805 ± 0.015 | 0.736 ± 0.015 | –
x1 = 0.009062 | 1.82 ± 0.017 | 1.574 ± 0.017 | 1.367 ± 0.016 | 1.208 ± 0.016 | 1.07 ± 0.016 | 0.958 ± 0.015 | 0.867 ± 0.015 | 0.781 ± 0.015 | –
x1 = 0.01107 | 1.956 ± 0.018 | 1.696 ± 0.017 | 1.476 ± 0.017 | 1.3 ± 0.016 | 1.146 ± 0.016 | 1.026 ± 0.016 | 0.928 ± 0.015 | 0.831 ± 0.015 | –
x1 = 0.01292 | 2.098 ± 0.018 | 1.817 ± 0.018 | 1.578 ± 0.017 | 1.378 ± 0.016 | 1.223 ± 0.016 | 1.087 ± 0.016 | 0.985 ± 0.016 | 0.887 ± 0.015 | –
x1 = 0.0148 | 2.243 ± 0.019 | 1.938 ± 0.018 | 1.674 ± 0.017 | 1.467 ± 0.017 | 1.291 ± 0.016 | 1.155 ± 0.016 | 1.035 ± 0.016 | 0.931 ± 0.015 | –
x1 = 0.01797 | 2.456 ± 0.02 | 2.105 ± 0.018 | 1.823 ± 0.018 | 1.596 ± 0.017 | 1.392 ± 0.016 | 1.252 ± 0.016 | 1.114 ± 0.016 | 0.999 ± 0.016 | –
